Results published in patent publication US6355669B1, “Retinoic acid agonists as preventive and therapeutic agents for nephritis” (Eisai Co., Ltd., priority 1997, dated 2002).

Columns and labels:
human RARα = target: T1, human RARα (Homo sapiens, UniProt P10276); test: RAR binding assay (inhibition of 3H-all-trans-retinoic acid binding), RAR-α; set-up: expressed in transfected cells; conditions: nuclear extract of BHK cells expressing human RARα, read-out: Receptor binding assay IC50 (nM) RAR-α
T1 sequence (P10276 1-462): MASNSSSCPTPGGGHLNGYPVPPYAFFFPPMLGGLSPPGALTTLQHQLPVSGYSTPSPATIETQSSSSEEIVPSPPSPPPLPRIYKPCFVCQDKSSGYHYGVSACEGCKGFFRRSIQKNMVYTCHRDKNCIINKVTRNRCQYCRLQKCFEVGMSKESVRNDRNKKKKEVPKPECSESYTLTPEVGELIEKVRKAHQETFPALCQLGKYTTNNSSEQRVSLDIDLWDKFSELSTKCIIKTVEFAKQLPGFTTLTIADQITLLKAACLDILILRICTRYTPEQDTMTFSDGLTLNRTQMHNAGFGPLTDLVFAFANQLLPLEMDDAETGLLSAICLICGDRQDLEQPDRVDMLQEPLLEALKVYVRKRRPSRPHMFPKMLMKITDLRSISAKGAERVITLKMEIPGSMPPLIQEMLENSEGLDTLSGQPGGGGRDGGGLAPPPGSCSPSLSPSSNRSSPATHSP
Method: (§1) Cells constantly expressing RARα, β and γ proteins were prepared by introducing human RARα, β and γ genes into BHK (baby hamster kidney) cells. A nuclear fraction of these cells was used to construct an experimental system for measuring the specific binding of all-trans-retinoic acid to RAR, and in this experimental system, the ability of each test compound to bind to […] was examined by measuring the degree of inhibition of binding. Further, the ability of each test compound to bind to each receptor subtype was compared to determine the selectivity of the compound for RAR subtype.
(§2) 5×10^8 BHK cells having the RAR gene introduced into them were suspended in 15 ml solution A (5 mM sodium phosphate (pH 7.4), 10 mM monothioglycerol, 10% (v/v) glycerol, 1 mM phenyl methyl sulfonyl fluoride (PMSF), 10 μg/ml aprotinin, 25 μg/ml leupeptin), then homogenized therein and centrifuged, and the supernatant was removed. The resulting pellet was suspended in 15 ml buffer B (10 mM Tris-HCl (pH 8.5), 10 mM monothioglycerol, 10% (v/v) glycerol, 1 mM PMSF, 10 μg/ml aprotinin, 25 μg/ml leupeptin, 0.4 M potassium chloride), then left at 4° C. for 1 hour and ultracentrifuged at 100,000×g, 4° C. for 1 hour. The resulting supernatant was frozen and stored as a nuclear extract fraction at −80° C. until use (Methods in Enzymology, 189, 248).
(§3) 180 μl of the extract fraction and 10 μl diluted solution of all-trans-retinoic acid or a test compound were added to each well on a 96-well plate made of polypropylene, and further 10 μl of 10 nM ^3H-all-trans-retinoic acid was added thereto and left at 4° C. for 16 hours. 3% charcoal-0.3% dextran solution was added to the reaction solution and centrifuged whereby free ^3H-all-trans-retinoic acid was separated, and the count in the supernatant was determined by a scintillation counter. The count when a 500-fold excess of non-labeled all-trans-retinoic acid was added was subtracted as unspecific binding from the value obtained, to determine the amount of each compound binding specifically to RAR.
(§4) The concentration (IC50) of each compound at which the binding of ^3H-all-trans-retinoic acid was inhibited by 50% was determined and the results are shown in Tables 3-1 and 3-2.

human RARβ = target: T2, human RARβ (Homo sapiens, UniProt P10826); test: RAR binding assay (inhibition of 3H-all-trans-retinoic acid binding), RAR-β; set-up: expressed in transfected cells; conditions: nuclear extract of BHK cells expressing human RARβ, read-out: Receptor binding assay IC50 (nM) RAR-β
T2 sequence (P10826 1-455): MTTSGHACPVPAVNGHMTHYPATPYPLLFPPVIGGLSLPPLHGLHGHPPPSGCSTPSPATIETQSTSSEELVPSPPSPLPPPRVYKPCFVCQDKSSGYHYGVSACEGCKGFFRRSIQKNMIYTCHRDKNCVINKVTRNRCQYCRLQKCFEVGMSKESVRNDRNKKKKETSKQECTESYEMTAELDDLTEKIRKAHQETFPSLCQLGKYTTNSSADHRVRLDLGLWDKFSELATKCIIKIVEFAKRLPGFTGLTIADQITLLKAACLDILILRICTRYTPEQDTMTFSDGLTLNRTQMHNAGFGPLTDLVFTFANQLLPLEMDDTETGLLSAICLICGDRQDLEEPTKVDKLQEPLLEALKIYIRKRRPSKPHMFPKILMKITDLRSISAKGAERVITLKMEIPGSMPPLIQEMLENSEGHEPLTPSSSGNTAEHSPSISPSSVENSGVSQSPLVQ
Method: as §1, §2, §3, §4

human RARγ = target: T3, human RARγ (Homo sapiens, UniProt P13631); test: RAR binding assay (inhibition of 3H-all-trans-retinoic acid binding), RAR-γ; set-up: expressed in transfected cells; conditions: nuclear extract of BHK cells expressing human RARγ, read-out: Receptor binding assay IC50 (nM) RAR-γ
T3 sequence (P13631 1-454): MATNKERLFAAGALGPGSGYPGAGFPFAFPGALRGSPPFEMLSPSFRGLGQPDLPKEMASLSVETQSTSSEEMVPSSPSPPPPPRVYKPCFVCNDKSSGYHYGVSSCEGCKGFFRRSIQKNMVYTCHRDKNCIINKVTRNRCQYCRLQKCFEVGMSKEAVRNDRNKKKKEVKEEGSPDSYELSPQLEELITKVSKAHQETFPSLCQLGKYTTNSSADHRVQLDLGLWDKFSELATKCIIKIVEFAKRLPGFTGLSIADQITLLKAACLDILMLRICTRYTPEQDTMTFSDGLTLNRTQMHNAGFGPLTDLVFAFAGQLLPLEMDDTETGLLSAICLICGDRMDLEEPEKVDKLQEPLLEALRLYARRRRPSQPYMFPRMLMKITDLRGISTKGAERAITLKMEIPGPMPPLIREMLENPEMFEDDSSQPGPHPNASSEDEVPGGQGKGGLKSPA
Method: as §1, §2, §3, §4

[1] = tested on: accelerated Masugi nephritis; test: Rat model with accelerated Masugi nephritis (proteins excreted in urine for 24 hours); format: in vivo, Sprague-Dawley strain rats; conditions: oral once every day, compared with the control group
Method: Sprague-Dawley strain rats were immunized by subcutaneously administering rabbit γ-globulin in a dose of 4 mg/rat along with Freund's complete adjuvant into the bottoms of their both hind legs. On the 5th day after the rats were immunized, 1 ml of anti-rat glomerular basement membrane rabbit serum diluted 6- or 8-fold was administered via tail veins into the animals. On the 8th day, the rats were forced to be orally administered 8 ml sterilized water and then placed in a metabolism cage, and their urine was collected for 24 hours during which the animals were allowed neither food nor water. As the indicator of the model with accelerated Masugi nephritis, the amount of proteins excreted in urine for 24 hours was used.
The medium was administered into the control group.

[2] = tested on: anti-dinitrophenyl (DNP) IgG2a antibody titer; test: Mouse model producing antibody (anti-DNP IgG2a antibody titer in serum, ELISA); format: in vivo, BALB/c mice; conditions: for effect on anti-DNP IgG2a: dose 0.1 mg/kg oral once every day for 10 days, 10th day after immunization
Method: BALB/c mice were immunized by administering dinitrophenylated keyhole limpet hemocyanin (DNP-KLH) as antigen intraperitoneally into them in a dose of 100 μg/mouse along with Freund's complete adjuvant. On the 10th day after the day on which the mice were immunized, blood was collected from the orbital venous plexus of the animals under anesthesia with ether and examined for anti-dintrophenyl (DNP) IgG2a antibody titer in serum by the ELISA method.
The test compounds B, E, F, G and H were suspended in 0.5% aqueous methyl cellulose solution and orally administered into the animals once every day for 10 days from the day when the animals were immunized with DNP-KLH. The medium was administered into the control group.

| IC50 (human RARα) [nM] | IC50 (human RARβ) [nM] | IC50 (human RARγ) [nM] | SMILES | other results |
| --- | --- | --- | --- | --- |
| 0.6 | 56 | 140 | CC1(C)CCC(C)(C)c2nc(-c3ccc(-c4ccc(C(=O)O)cc4)[nH]3)cnc21 [drawing 14] |  |
|  |  |  | CC1(C)CCCc2ncc(-c3ccc(-c4ccc(C(=O)O)cc4)[nH]3)nc21 [Compound E, 4-{2-{5-[2-(8,8-dimethyl-5,6,7,8-tetrahydroquinoxalynyl)]pyrrolyl}}benzoic acid] | Degree of Inhibition of Albuminuria (%) ([1]; dose 1.0 mg/kg, 1 mg/kg): 85.8%; effect on anti-DNP IgG2a [2]: significantly inhibited |
| 1 | 58 | 130 | CC1CCCN(C)c2ncc(-c3ccc(-c4ccc(C(=O)O)cc4)[nH]3)nc21 (centres unmarked) [drawing 16] |  |
|  |  |  | C[Si](C)(C)c1cc(C(=O)Nc2ccc(C(=O)O)cc2)cc([Si](C)(C)C)c1 [Compound I, 4-{[(3,5-bistrimethylsilylphenyl)carbonyl]amino}benzoic acid] | Degree of Inhibition of Albuminuria (%) ([1]; dose 1.0 mg/kg, 1 mg/kg): 89.4% |
| 3.8 | > 500 | > 500 | O=C(O)c1ccc(-c2ccc(-c3cc4c(F)ccc(Cl)c4o3)[nH]2)cc1 |  |
|  |  |  | CCOC(=O)/C=C(C)/C=C/C=C(C)/C=C/c1c(C)cc(OC)c(C)c1C [etretinate, reference compound] | effect on production of anti-DNP antibody ([2]; 50 mg/kg, administered in the same manner as the test compounds): showed a tendency to inhibit |
| < 0.5 | 160 | 270 | CCc1ccc(C)c2cc(-c3ccc(-c4ccc(C(=O)O)cc4)[nH]3)oc12 [drawing 13] |  |
|  |  |  | COCc1cc2c(cc1-c1ccc(-c3ccc(C(=O)O)cc3)[nH]1)C(C)(C)CCC2(C)C [Compound H, 4-{2-[5-(3-methoxymethyl-5,6,7,8-tetrahydro-5,5,8,8-tetramethylnaphthalene-2-yl)pyrrolyl}}benzoic acid] | Degree of Inhibition of Albuminuria (%) ([1]; dose 0.3 mg/kg, 0.3 mg/kg): 61.3%; effect on anti-DNP IgG2a [2]: showed a tendency to inhibit |
| 1 |  | > 500 | O=C(O)c1ccc(-c2ccc(-c3cc4c(Cl)ccc(Cl)c4o3)[nH]2)cc1 |  |
| 0.6 | 107 | 195 | O=C(O)c1ccc(-c2ccc(-c3cc4c(C(F)(F)F)ccc(F)c4o3)[nH]2)cc1 [drawing 11] |  |
|  |  |  | CC1CCCN(C)c2ccc(-c3ccc(-c4ccc(C(=O)O)cc4)[nH]3)cc21 (centres unmarked) [Compound F, 4-{2-{5-[7-(1,5-dimethyl-2,3,4,5-tetrahydro-1H-benzazepinyl)]pyrrolyl}}benzoic acid] | Degree of Inhibition of Albuminuria (%) ([1]; dose 1.0 mg/kg, 1 mg/kg): 71.1%; effect on anti-DNP IgG2a [2]: significantly inhibited |
|  |  |  | CCn1nc(-c2ccc(-c3ccc(C(=O)O)cc3)[nH]2)cc1C(C)C [G] | effect on anti-DNP IgG2a [2]: significantly inhibited |

| SMILES | IC50 (human RARα) [nM] | IC50 (human RARβ) [nM] | IC50 (human RARγ) [nM] | other results |
| --- | --- | --- | --- | --- |
| Cc1ccc(C)c2oc(-c3ccc(-c4ccc(C(=O)O)cc4)[nH]3)cc12 [drawing 8] | 1.4 | 340 | > 500 |  |
| COCc1cc2c(cc1-c1ccc(-c3ccc(C(=O)O)cc3)[nH]1)C(C)(C)CCC2(C)C [drawing 18] | 10 | 230 | 83 |  |
| C[Si](C)(C)c1cc(C(=O)Nc2ccc(C(=O)O)cc2)cc([Si](C)(C)C)c1 [drawing 19] | 6.4 | > 500 | > 500 |  |
| Cc1ccc(C)c2c(F)c(-c3ccc(-c4ccc(C(=O)O)cc4)[nH]3)oc12 [drawing 12] | < 0.5 | 49 | 225 |  |
